Experimental data as given in PubChem BioAssay AID1963860 (Molecular Pharmacology Branch, DTP, NCI, 2024).
pIC50: −log10 of the molar value.

Test system: CN0375-F725-PDC KRAS spheroid viability
Test: Anticancer human tumor CN0375-F725-PDC patient-derived colon carcinoma cell line growth inhibition [KRAS2]
Details: spheroids with HUVEC and MSC; for pIC50: curve of first compound; for viability, T/C: stronger effect = lower value
In short: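 Combination screen of spheroid viability in tumor-cell co-cultures with endothelial (HUVEC) and mesenchymal stem cell stroma. Each agent was tested in half-log dilutions, topping at clinical Cmax or at 10 microM without a known Cmax.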

[1] = second compound 0.1 µM, first compound 0.0316 µM
[2] = second compound 0.1 µM, first compound 0.1 µM
[3] = second compound 0.1 µM, first compound 0.316 µM
[4] = second compound 0.1 µM, first compound 1 µM
[5] = second compound 0.1 µM, first compound 3.16 µM
[6] = second compound 0.1 µM, first compound 10 µM
[7] = second compound 0.316 µM, first compound 0.0316 µM
[8] = second compound 0.316 µM, first compound 0.1 µM
[9] = second compound 0.316 µM, first compound 0.316 µM
[10] = second compound 0.316 µM, first compound 1 µM
[11] = second compound 0.316 µM, first compound 3.16 µM
[12] = second compound 0.316 µM, first compound 10 µM
[13] = second compound 1 µM, first compound 0.0316 µM
[14] = second compound 1 µM, first compound 0.1 µM
[15] = second compound 1 µM, first compound 0.316 µM
[16] = second compound 1 µM, first compound 1 µM
[17] = second compound 1 µM, first compound 3.16 µM
[18] = second compound 1 µM, first compound 10 µM
[19] = second compound 3.16 µM, first compound 0.0316 µM
[20] = second compound 3.16 µM, first compound 0.1 µM
[21] = second compound 3.16 µM, first compound 0.316 µM
[22] = second compound 3.16 µM, first compound 1 µM
[23] = second compound 3.16 µM, first compound 3.16 µM
[24] = second compound 3.16 µM, first compound 10 µM
[25] = second compound 10 µM, first compound 0.0316 µM
[26] = second compound 10 µM, first compound 0.1 µM
[27] = second compound 10 µM, first compound 0.316 µM
[28] = second compound 10 µM, first compound 1 µM
[29] = second compound 10 µM, first compound 3.16 µM
[30] = second compound 10 µM, first compound 10 µM
[31] = second compound 0.1 µM, first compound 0.000316 µM
[32] = second compound 0.1 µM, first compound 0.001 µM
[33] = second compound 0.1 µM, first compound 0.00316 µM
[34] = second compound 0.1 µM, first compound 0.01 µM
[35] = second compound 0.316 µM, first compound 0.000316 µM
[36] = second compound 0.316 µM, first compound 0.001 µM
[37] = second compound 0.316 µM, first compound 0.00316 µM
[38] = second compound 0.316 µM, first compound 0.01 µM
[39] = second compound 1 µM, first compound 0.000316 µM
[40] = second compound 1 µM, first compound 0.001 µM
[41] = second compound 1 µM, first compound 0.00316 µM
[42] = second compound 1 µM, first compound 0.01 µM
[43] = second compound 3.16 µM, first compound 0.000316 µM
[44] = second compound 3.16 µM, first compound 0.001 µM
[45] = second compound 3.16 µM, first compound 0.00316 µM
[46] = second compound 3.16 µM, first compound 0.01 µM
[47] = second compound 10 µM, first compound 0.000316 µM
[48] = second compound 10 µM, first compound 0.001 µM
[49] = second compound 10 µM, first compound 0.00316 µM
[50] = second compound 10 µM, first compound 0.01 µM
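Further: spheroids exposed to agents for 7 days.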

| SMILES | pIC50 (second compound 0.1 µM) | pIC50 (second compound 0.316 µM) | pIC50 (second compound 1 µM) | pIC50 (second compound 3.16 µM) | pIC50 (second compound 10 µM) | viability, T/C [1] [%] | viability, T/C [2] [%] | viability, T/C [3] [%] | viability, T/C [4] [%] | viability, T/C [5] [%] | viability, T/C [6] [%] | viability, T/C [7] [%] | viability, T/C [8] [%] | viability, T/C [9] [%] | viability, T/C [13] [%] | viability, T/C [14] [%] | viability, T/C [19] [%] | viability, T/C [20] [%] | viability, T/C [25] [%] | viability, T/C [26] [%] | other results |
| --- | --- | --- | --- | --- | --- | --- | --- | --- | --- | --- | --- | --- | --- | --- | --- | --- | --- | --- | --- | --- | --- |
| CC(C)NCC(C(=O)N1CCN(c2ncnc3c2C(C)CC3O)CC1)c1ccc(Cl)cc1 (stereo not given) + CNCc1ccccc1-c1csc(C(C)Nc2nc(C)nc3cc(OC)c(OC)cc23)c1 | < 5.00 | < 5.00 | 6.43 | > 7.50 | > 7.50 | 107 | 103 | 93.1 | 82.6 | 89.5 | 78.7 | 99.4 | 98.2 | 88.5 | 56.6 | 57.2 | 0.23 | 0.3 | 0.14 | 0.14 | viability, T/C [10]: 85.2%; viability, T/C [11]: 80%; viability, T/C [12]: 61.8%; viability, T/C [15]: 48.4%; viability, T/C [16]: 45.2%; viability, T/C [17]: 30.1%; viability, T/C [18]: 16%; viability, T/C [21]: 0.25%; viability, T/C [22]: 0.28%; viability, T/C [23]: 0.31%; viability, T/C [24]: 0.32%; viability, T/C [27]: 0.16%; viability, T/C [28]: 0.14%; viability, T/C [29]: 0.13%; viability, T/C [30]: 0.2% |
| CC(C)n1nc(-c2ccc3oc(N)nc3c2)c2c(N)ncnc21 + CNCc1ccccc1-c1csc(C(C)Nc2nc(C)nc3cc(OC)c(OC)cc23)c1 | 7.24 | 7.27 | 8.95 | > 9.50 | > 9.50 | 55.3 | 45.4 | – | – | – | – | 55.9 | 43.2 | – | 37.9 | 29 | 0.52 | 0.44 | 0.18 | 0.21 | viability, T/C [31]: 99.7%; viability, T/C [32]: 93.1%; viability, T/C [33]: 80%; viability, T/C [34]: 67%; viability, T/C [35]: 91.1%; viability, T/C [36]: 83.9%; viability, T/C [37]: 78.5%; viability, T/C [38]: 67%; viability, T/C [39]: 66.2%; viability, T/C [40]: 49.4%; viability, T/C [41]: 37.8%; viability, T/C [42]: 47.7%; viability, T/C [43]: 0.35%; viability, T/C [44]: 0.36%; viability, T/C [45]: 0.33%; viability, T/C [46]: 0.28%; viability, T/C [47]: 0.13%; viability, T/C [48]: 0.17%; viability, T/C [49]: 0.14%; viability, T/C [50]: 0.15% |
| CC1(C)CCC(CN2CCN(c3ccc(C(=O)NS(=O)(=O)c4ccc(NCC5CCOCC5)c([N+](=O)[O-])c4)c(Oc4cnc5[nH]ccc5c4)c3)CC2)=C(c2ccc(Cl)cc2)C1 + CNCc1ccccc1-c1csc(C(C)Nc2nc(C)nc3cc(OC)c(OC)cc23)c1 | 5.32 | 5.55 | > 7.50 | > 7.50 | > 7.50 | 104 | 104 | 103 | 96.2 | 61.6 | 29.8 | 90.7 | 95.5 | 93.4 | 36.5 | 42.3 | 0.26 | 0.27 | 0.12 | 0.14 | viability, T/C [10]: 89.5%; viability, T/C [11]: 45.9%; viability, T/C [12]: 18.7%; viability, T/C [15]: 40.7%; viability, T/C [16]: 50.9%; viability, T/C [17]: 15.2%; viability, T/C [18]: 7.89%; viability, T/C [21]: 0.18%; viability, T/C [22]: 0.2%; viability, T/C [23]: 0.25%; viability, T/C [24]: 0.68%; viability, T/C [27]: 0.13%; viability, T/C [28]: 0.13%; viability, T/C [29]: 0.16%; viability, T/C [30]: 0.19% |
| COc1cc2nccc(Oc3ccc(NC(=O)C4(C(=O)Nc5ccc(F)cc5)CC4)cc3)c2cc1OC + CNCc1ccccc1-c1csc(C(C)Nc2nc(C)nc3cc(OC)c(OC)cc23)c1 | 5.52 | 5.91 | > 7.50 | > 7.50 | > 7.50 | 98.2 | 94.4 | 85.6 | 76.3 | 44.4 | 53.7 | 93 | 97.6 | 72.7 | 45.5 | 42.6 | 0.22 | 0.26 | 0.14 | 0.13 | viability, T/C [10]: 60.5%; viability, T/C [11]: 23%; viability, T/C [12]: 11.3%; viability, T/C [15]: 19.5%; viability, T/C [16]: 20.6%; viability, T/C [17]: 2.02%; viability, T/C [18]: 1.05%; viability, T/C [21]: 0.27%; viability, T/C [22]: 0.15%; viability, T/C [23]: 0.15%; viability, T/C [24]: 0.11%; viability, T/C [27]: 0.14%; viability, T/C [28]: 0.12%; viability, T/C [29]: 0.1%; viability, T/C [30]: 0.16% |
| Cn1ncnc1[C@H]1c2n[nH]c(=O)c3cc(F)cc(c23)N[C@@H]1c1ccc(F)cc1 + CNCc1ccccc1-c1csc(C(C)Nc2nc(C)nc3cc(OC)c(OC)cc23)c1 | < 7.00 | < 7.00 | 9.20 | > 9.50 | > 9.50 | 95.4 | 93.6 | – | – | – | – | 91 | 88.2 | – | 39.4 | 40.6 | 0.25 | 0.42 | 0.13 | 0.23 | viability, T/C [31]: 107%; viability, T/C [32]: 106%; viability, T/C [33]: 97%; viability, T/C [34]: 95.7%; viability, T/C [35]: 100%; viability, T/C [36]: 101%; viability, T/C [37]: 94.5%; viability, T/C [38]: 86.9%; viability, T/C [39]: 54.1%; viability, T/C [40]: 46.2%; viability, T/C [41]: 47.8%; viability, T/C [42]: 41.5%; viability, T/C [43]: 0.23%; viability, T/C [44]: 0.33%; viability, T/C [45]: 0.31%; viability, T/C [46]: 0.28%; viability, T/C [47]: 0.14%; viability, T/C [48]: 0.33%; viability, T/C [49]: 0.13%; viability, T/C [50]: 0.15% |
